The numbers were not newly measured in patent US9687554B2, “Finasteride and minoxidil polymeric nanoparticle its process of preparation, aqueous suspension containing the same, pharmaceutical composition, and its use” (Biolab Sanus Farmaceutica Ltda., priority 2012, dated 2017), which cites them from elsewhere.

The data set concerns men aged 18 to 41 years. The conditions noted are these: 1 mg daily, end of five years, 1553 men; placebo 75%.

In the case of `CC(C)(C)NC(=O)[C@H]1CC[C@H]2[C@@H]3CC[C@H]4NC(=O)C=C[C@]4(C)[C@H]3CC[C@]12C` [finasteride], the “Patients who developed baldness” value was 10%.
